Measurements reported in patent US20220257552A1, “METHODS OF PRESCREENING AND TREATING BREAST CANCERS WITH SELECTIVE ANDROGEN RECEPTOR MODULATORS” (priority 2021, published 2022).

Columns and labels:
[1] = test system: HCI-7 PDX; experiment: HCI-7 (HCI-007) patient-derived xenograft in NSG mice; assay type: in vivo; conditions: Formula IX 10 mg/kg, enzalutamide 20 mg/kg, orally, vs vehicle
Protocol: HCI-007 tumor pieces (1 mm^3) were implanted surgically (one per mouse) under the skin on the flanks of NSG mice. Simultaneously, 17β-estradiol pellet (Innovative Research of America) was implanted surgically under the skin of each mouse. Tumors were allowed to grow and reach approximately 100 mm^3 volume (1*W*W*0.526). […] Tumor volume was measured weekly and represented as % change in tumor volume (FIG. 32). Mice were sacrificed and tumors stored for further analysis.
(§1) All animal protocols were approved by The University of Tennessee Health Science Center (UTHSC) Institutional Animal Care and Use Research Committee. Xenograft experiments were performed as previously published (Narayanan et al. (2014) PLoS One 9, e103202). Briefly, 3 million MCF-7 cells were suspended in 0.05 ml MEM+10% FBS and 0.05 ml Matrigel/nude mouse and were injected subcutaneously. Once the tumor size reached 100-200 mm^3, the animals were randomized and treated orally with the indicated drugs formulated in DMSO:PEG-300 (15:85). HCI-7, HCI-9, and HCI-13 PDXs were gifts kindly donated by Dr. Alana Welm (Huntsman Cancer Institute, Salt Lake City, Utah). HCI PDX tumor fragments (1 mm^3) were surgically implanted under the mammary fat pad in female NOD SCID Gamma (NSG) mice. Tumor volume was measured twice weekly for MCF-7 xenograft and once or twice weekly for HCI PDXs. At the end of the study, animals were sacrificed and tumors were excised, weighed, and stored for various analyses.
From the several PDXs available, three AR-positive PDXs were identified, based on gene expression profile. […] The enzalutamide dose was selected based on previous published experiments (Park et al. (2016) Cancer Invest 34, 517-520; Pollock et al. (2016) Nat Chem Biol 12, 795-801) as well as from internal experiments conducted in prostate cancer xenografts and in Hershberger studies.

[2] = test system: HCI-9 PDX; experiment: HCI-9 patient-derived xenograft in NSG mice; assay type: in vivo; conditions: Formula IX 10 mpk, enzalutamide 30 mpk p.o.
Protocol: as §1
To determine if the same effect is observed in an AR-positive, but ER-negative breast cancer, HCI-9 tumor fragments were implanted under the mammary fat pad of NSG mice.

[3] = test system: BR-0001 TNBC; experiment: BR-0001 AR-positive TNBC xenograft in NSG mice; assay type: in vivo; conditions: 10 mg/kg/day Formula IX or enzalutamide orally
Protocol: Xenograft experiment. NSG mice obtained from JAX labs were housed with five animals per cage and were allowed free access to tap water and commercial rat chow (Harlan Teklad 22/5 rodent diet—8640). During the course of the study, the animals were maintained on a 12 hr light:dark cycle. Animals were anesthetized and BR-0001 TNBC fragments of 1 mm^3 (approximately) were implanted subcutaneously in NSG mice. […] Tumor volume was measured thrice weekly. Tumor volume was calculated using the formula length×width×width×0.5236. Once tumors reached greater than 1500-2000 mm^3, animals were sacrificed and tumors weighted and stored for various analysis. Two regions of the same BR-0001 tumor, an AR-positive TNBC xenograft, were immunohistochemically stained with AR antibody (AR N20 from SCBT) (FIGS. 26A and 26B) and compared to an AR-negative (FIG. 26C) TNBC as a negative control. […] The tumor xenograft efficacy experimental results are provided in 27A-27C, with FIGS. 27A and 27B being replicate experiments.
Tumors from replicate experiment 2 (FIG. 27B) were fixed in formalin and paraffin embedded. Slides were cut and stained with Ki-67 antibody. Ki-67 positive cells (total 200 cells were counted in each slide) in each slide were counted and represented as % stained cells, as shown in FIG. 28B.

[4] = test system: MCF-7-GFP cells; assay type: cell-based, human; conditions: 10 days
From the text: Tumor microenvironment contains tumor epithelial cells, stromal cells, cancer-associated fibroblasts (CAFs), and endothelial cells. The collective function of these cells promotes the aggressive growth of tumors due to secretion of paracrine factors. The CAFs are important for the sustained growth of cancers, and they differ from normal fibroblasts in their capacity to secrete factors that promote proliferation of cancer cells. […] Medium was collected over a period of 10 days and pooled. CAFs were stained with SRB to evaluate the effect of AR ligands on proliferation.
Conditioned medium was replaced on days 4 and 7 and the cells were stained with SRB to measure viability.

[5] = test system: TNBC; conditions: plus chemotherapy arm; cited from earlier work
[6] = test system: TNBC; conditions: with nab-paclitaxel; cited from earlier work
[7] = test system: breast cancer specimens obtained from patients; experiment: Breast cancer patient specimens, ex vivo sponge culture; assay type: cell-based, human; conditions: 1 μM Formula IX, 100 nM fulvestrant, 3 days
Protocol: Specimens from breast cancer patients were collected with patient consent under a protocol approved by the UTHSC Institutional Review Board (IRB). Specimens were collected immediately after surgery in RPMI medium containing penicillin:streptomycin and Fungizone and transported to the laboratory on ice. The tissues were finely minced and treated with collagenase for 2 hours.
(§2) HCI-13 tumors grown in female mice were allowed to reach 500-1000 mm^3 before the animals were sacrificed and the tumors were excised to be used for sponge culture. Patient specimens frozen in liquid nitrogen in freezing medium were used for sponge culture. […] Tumors were sliced into small pieces (˜1 mm^3) and incubated on pre-soaked gelatin sponges (5 fragments/sponge) in 12 well plates containing 1.5 mL medium (MEM+10% FBS+2 mM L-glutamine+10 μg/mL insulin+10 μg/mL hydrocortisone+penicillin:streptomycin). The cultures were performed in triplicates for HCI-13 and singly for patient specimens. Pooled samples (n=5/sponge) from each sponge constituted one sample. Tissues were harvested after 3 days of treatment, RNA extracted, and expression of various genes measured. Although the same procedure was adopted for specimens obtained from breast cancer patients, the specimens were cultured singly (n=5/sponge=one sample) and not in triplicates as performed for HCI-13.
Like other cancers, breast cancer is also heterogeneous in its genomic profile as well as in its response to treatments. […] Three days after treatment, RNA was isolated from the tissues and expression of ER- and AR-target genes was measured.

[8] = test system: HCI-13 tumor fragments; experiment: HCI-13 ex vivo sponge culture, real time PCR; assay type: cell-based; conditions: 10 nM DHT, 1 μM Formula IX, 100 nM fulvestrant, 3 days
Protocol: as §2

[9] = target: Wildtype ER-α (Homo sapiens, UniProt P03372); conditions: 10 nM fulvestrant or 1 μM tamoxifen with 0.1 nM estradiol
Protocol: (§3) After 6 days of treatment, cells were harvested, and the number of cells was counted. […] Medium was changed after 3 days and re-treated. Cells were fixed after 6 days of treatment and the cell viability was measured by SRB assay. […] Medium was changed, and the cells were re-treated on days 4 and 7. Medium was collected, pooled from triplicates, and stored in −80° C. After 10 days of treatment, cells were fixed, and cell viability was measured using SRB. MCF-7 cells stably transfected with GFP (MCF-7-GFP) were plated in growth medium. Twenty-four hours after plating, cells were fed with the conditioned medium obtained from patient-derived fibroblasts as indicated above. Cells were fed for 10 days with conditioned medium, with medium changed on days 4 and 7. After 10 days of treatment, cells were fixed, and the viability was measured by SRB assay. […] AR-positive, but ER-negative HCI-9 PDX was surgically implanted as 1 mm^3 fragments under the mammary fat pad in NSG mice (n=8-10/group). […] Tumor volume was measured thrice weekly. […] ER-α from HCI-13 was cloned into pCR3.1 vector. Wildtype ER-α and HCI-13 ER-α, ERE-LUC, and CMV-LUC were transfected into COS-1 cells using lipofectamine. […] Twenty four hours after treatment cells were harvested and luciferase assay was performed. […] Values are expressed as average±S.E. from n=3-4/data point.

[10] = target: HCI-13 ER-α (Homo sapiens, UniProt P03372, Y537S); conditions: 10 nM fulvestrant or 1 μM tamoxifen with 0.1 nM estradiol
Protocol: as §3

[11] = test system: metastatic ER+/HER2- breast cancer; conditions: cited from earlier work

Sequence of Wildtype ER-α (P03372 whole entry, species assumed): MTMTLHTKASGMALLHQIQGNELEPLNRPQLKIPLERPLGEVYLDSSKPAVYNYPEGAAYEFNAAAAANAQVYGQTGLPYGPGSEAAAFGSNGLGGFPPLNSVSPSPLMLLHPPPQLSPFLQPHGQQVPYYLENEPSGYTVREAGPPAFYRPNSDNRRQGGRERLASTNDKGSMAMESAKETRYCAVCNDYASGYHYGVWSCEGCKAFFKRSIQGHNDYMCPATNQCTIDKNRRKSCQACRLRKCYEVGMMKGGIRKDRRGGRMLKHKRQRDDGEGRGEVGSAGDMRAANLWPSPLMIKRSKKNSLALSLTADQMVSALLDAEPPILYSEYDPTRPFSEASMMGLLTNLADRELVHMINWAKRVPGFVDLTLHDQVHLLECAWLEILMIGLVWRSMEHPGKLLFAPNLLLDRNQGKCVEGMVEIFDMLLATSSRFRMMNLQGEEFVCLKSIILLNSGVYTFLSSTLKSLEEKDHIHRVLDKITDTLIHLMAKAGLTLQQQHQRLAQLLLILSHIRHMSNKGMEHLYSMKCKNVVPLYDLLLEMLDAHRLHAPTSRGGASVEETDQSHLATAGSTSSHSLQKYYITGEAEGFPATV
Sequence of HCI-13 ER-α (P03372 whole entry Y537S): as the sequence (P03372 whole entry, species assumed) above, with Y537S counted along it

CNC(=O)c1ccc(N2C(=S)N(c3ccc(C#N)c(C(F)(F)F)c3)C(=O)C2(C)C)cc1F [enzalutamide, reference compound]
tumor growth (% change in tumor volume) [1]: grew comparably | tumor growth trajectory [2]: Neither Formula IX nor enzalutamide altered the growth trajectory | tumor growth [3]: indistinguishable from vehicle treatment | proliferation of breast cancer CAFs ([4]; 10 nM DHT, 1 μM Formula IX, 1 μM enzalutamide): neither AR agonist, DHT and Formula IX, nor AR antagonist enzalutamide, affected the proliferation | proliferation of MCF-7-GFP cells fed conditioned medium from treated CAFs [4]: not

pembrolizumab: PD-L1 blocking antibody
median PFS [5]: 9.7 months

atezolizumab: PD-L1 blocking antibody
Median progression-free survival (PFS) [6]: 7.4 months

C[C@]12CC[C@@H]3c4ccc(O)cc4C[C@@H](CCCCCCCCC[S+]([O-])CCCC(F)(F)C(F)(F)F)[C@H]3[C@@H]1CC[C@@H]2O (stereo partly shown) [fulvestrant]
specimens in which ER function was inhibited [7]: 4 of 8 | inhibition of ER-induced pS2 and PR gene expression [8]: ineffective | ER activity [9]: inhibited | ER activity [10]: not inhibited | median PFS range ([11]; after failing one estrogen blocking therapy): 4.6-9.3 months | objective response rate ([11]; depending on the trial): 10.9%-21.3%
